Each block holds one compound with its values, some of them ahead of it.
Experiments:
Format in all cases: cell-based
SMARCA4 = molecular target: T1, SMARCA4 (Homo sapiens, UniProt P51532); experiment: SMARCA4 Western blot degradation in MV4-11 cells; settings: 24 h; for Dmax: MV4-11, MV4-11 cells, read-out: SMARCA4 MSD MV411 degradation 24 h: average Dmax %; for DC50: MV4-11 cells, read-out: SMARCA4 MSD MV411 degradation 24 h: Mean external-Abs DC50
T1 construct: SMARCA2/SMARCA4 protein degradation selectivity in MV4-11 cells; endogenous in cells; host or cells: MV4-11
Outline: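 Fluorescent LI-COR imaging of Western blots quantified SMARCA2 and SMARCA4 protein remaining in MV4-11 cells after 24 h of compound treatment. β-actin was the loading control, and DC50, Dmax and SMARCA2/4 selectivity are given as letter-coded ranges.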

SMARCA2 [1] = molecular target: T2, SMARCA2 (Homo sapiens, UniProt P51531); experiment: MSD SMARCA2 degradation in A549 cell line; settings: 24 h; for Dmax: A549, A549 cells; for DC50: A549 cells, read-out: SMARCA2 MSD A549 degradation 24 h: Average external-Abs DC50
Outline: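 SMARCA2 protein remaining after 24 h exposure of A549 cells (top concentration 1000 nM, 3-fold dilutions) was measured by MSD electrochemiluminescence immunoassay of cell lysates. Results are given as binned DC50 and maximal degradation (Dmax) codes.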

SMARCA2 [2] = molecular target: T2, SMARCA2; experiment: SMARCA2 Western blot degradation in MV4-11 cells; parameters: SMARCA2/SMARCA4 protein degradation selectivity in MV4-11 cells; endogenous in cells; host or cells: MV4-11; settings: for Dmax: MV4-11, MV4-11 cells, read-out: SMARCA2 MSD MV411 degradation 24 h: average Dmax %; for Dmax / DC50: 24 h; for DC50 / Selectivity in MV411: MV4-11 cells; for DC50: read-out: SMARCA2 MSD MV411 degradation 24 h: Mean external-Abs DC50; for Selectivity in MV411: SMARCA2/4 selectivity

T2 sequence (P51531 whole entry): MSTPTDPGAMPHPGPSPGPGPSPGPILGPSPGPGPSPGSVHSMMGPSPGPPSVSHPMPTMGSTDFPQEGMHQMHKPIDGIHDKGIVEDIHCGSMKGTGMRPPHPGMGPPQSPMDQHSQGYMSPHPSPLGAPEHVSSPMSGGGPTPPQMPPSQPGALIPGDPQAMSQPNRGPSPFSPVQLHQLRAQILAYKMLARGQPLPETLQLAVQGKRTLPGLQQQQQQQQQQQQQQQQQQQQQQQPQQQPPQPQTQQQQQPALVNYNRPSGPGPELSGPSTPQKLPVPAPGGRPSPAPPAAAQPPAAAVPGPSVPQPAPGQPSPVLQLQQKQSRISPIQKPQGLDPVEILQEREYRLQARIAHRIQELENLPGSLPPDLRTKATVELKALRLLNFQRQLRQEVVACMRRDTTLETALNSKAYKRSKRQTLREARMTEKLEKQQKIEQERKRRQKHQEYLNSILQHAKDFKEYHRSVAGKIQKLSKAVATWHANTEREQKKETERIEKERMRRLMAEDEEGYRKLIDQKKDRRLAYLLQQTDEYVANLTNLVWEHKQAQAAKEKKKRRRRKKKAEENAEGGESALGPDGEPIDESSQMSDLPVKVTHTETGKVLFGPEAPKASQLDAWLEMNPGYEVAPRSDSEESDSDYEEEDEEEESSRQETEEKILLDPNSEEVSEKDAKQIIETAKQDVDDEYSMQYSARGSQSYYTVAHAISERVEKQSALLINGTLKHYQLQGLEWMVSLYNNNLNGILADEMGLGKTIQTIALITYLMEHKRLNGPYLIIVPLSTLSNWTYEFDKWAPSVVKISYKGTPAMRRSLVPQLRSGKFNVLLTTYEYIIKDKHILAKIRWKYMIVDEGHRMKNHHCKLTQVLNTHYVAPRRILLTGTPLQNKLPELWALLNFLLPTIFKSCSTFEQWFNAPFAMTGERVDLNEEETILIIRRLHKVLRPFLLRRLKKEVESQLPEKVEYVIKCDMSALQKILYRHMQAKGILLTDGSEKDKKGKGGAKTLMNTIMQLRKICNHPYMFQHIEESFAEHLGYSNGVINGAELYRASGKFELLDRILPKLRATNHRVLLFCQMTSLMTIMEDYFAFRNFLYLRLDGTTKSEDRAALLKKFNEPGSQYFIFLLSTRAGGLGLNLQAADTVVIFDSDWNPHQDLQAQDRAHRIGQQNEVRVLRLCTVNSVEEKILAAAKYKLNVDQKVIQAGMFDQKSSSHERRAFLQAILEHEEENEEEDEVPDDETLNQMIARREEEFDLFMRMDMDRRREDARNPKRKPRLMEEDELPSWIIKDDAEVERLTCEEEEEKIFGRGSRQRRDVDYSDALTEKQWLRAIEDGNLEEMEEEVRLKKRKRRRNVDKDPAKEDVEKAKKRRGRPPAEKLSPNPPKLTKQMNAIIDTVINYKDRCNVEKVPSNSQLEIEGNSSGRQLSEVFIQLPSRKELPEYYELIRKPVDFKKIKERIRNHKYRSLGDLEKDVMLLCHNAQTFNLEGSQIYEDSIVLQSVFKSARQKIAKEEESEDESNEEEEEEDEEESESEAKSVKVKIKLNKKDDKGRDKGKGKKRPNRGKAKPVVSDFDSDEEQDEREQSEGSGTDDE
T1 sequence (P51532 whole entry): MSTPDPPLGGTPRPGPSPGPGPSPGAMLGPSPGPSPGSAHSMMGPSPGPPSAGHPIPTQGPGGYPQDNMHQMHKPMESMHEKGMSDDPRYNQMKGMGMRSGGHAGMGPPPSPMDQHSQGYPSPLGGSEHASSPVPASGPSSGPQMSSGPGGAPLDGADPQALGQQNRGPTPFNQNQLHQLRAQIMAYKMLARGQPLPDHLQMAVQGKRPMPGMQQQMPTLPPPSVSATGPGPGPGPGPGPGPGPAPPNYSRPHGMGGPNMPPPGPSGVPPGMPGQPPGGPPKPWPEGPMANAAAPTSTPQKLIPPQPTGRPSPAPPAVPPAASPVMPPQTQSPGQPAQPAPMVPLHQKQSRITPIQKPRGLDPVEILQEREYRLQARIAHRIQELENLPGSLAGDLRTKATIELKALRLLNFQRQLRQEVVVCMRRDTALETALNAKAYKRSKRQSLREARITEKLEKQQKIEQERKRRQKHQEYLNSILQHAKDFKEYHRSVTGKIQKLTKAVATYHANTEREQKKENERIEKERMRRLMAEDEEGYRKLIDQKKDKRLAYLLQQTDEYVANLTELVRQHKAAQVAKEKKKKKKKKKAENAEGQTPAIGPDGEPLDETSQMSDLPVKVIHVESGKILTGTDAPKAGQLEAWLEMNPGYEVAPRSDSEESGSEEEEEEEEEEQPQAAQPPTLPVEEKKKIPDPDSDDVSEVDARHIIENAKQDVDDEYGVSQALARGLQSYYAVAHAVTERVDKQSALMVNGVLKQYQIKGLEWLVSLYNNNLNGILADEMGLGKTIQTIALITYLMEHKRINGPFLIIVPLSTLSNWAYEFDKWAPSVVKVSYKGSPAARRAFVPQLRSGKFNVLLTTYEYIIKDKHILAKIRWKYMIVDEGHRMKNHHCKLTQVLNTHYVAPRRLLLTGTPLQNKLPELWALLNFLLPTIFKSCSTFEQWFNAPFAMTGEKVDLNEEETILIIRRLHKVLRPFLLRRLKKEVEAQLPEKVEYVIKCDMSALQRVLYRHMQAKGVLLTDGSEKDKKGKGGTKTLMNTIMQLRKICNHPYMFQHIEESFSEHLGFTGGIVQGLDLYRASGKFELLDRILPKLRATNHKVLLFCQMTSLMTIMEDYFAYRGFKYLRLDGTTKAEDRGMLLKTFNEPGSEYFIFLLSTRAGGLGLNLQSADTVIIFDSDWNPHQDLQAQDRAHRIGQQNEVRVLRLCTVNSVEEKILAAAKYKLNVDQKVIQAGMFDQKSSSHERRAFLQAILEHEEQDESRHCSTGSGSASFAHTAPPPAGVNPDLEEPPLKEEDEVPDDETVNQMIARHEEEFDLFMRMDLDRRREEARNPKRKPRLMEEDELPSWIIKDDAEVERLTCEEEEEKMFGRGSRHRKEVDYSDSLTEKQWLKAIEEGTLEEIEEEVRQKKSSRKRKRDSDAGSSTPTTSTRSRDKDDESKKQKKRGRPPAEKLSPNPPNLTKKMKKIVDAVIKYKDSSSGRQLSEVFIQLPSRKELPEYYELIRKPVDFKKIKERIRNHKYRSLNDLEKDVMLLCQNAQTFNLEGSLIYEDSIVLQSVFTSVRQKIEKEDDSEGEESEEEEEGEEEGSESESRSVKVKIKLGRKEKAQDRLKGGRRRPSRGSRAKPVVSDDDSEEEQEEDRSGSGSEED

Compound: C#Cc1ccc(CNC(=O)[C@@H]2C[C@@H](O)CN2C(=O)[C@@H](NC(=O)N2CC3(CC(N4CCC(c5cnc(N6CCc7[nH]c8nnc(-c9ccccc9O)cc8c7[C@H]6C)nc5)CC4)C3)C2)C(C)(C)C)c(OC)c1 [I-119]
Dmax (SMARCA4): > 90%
DC50 (SMARCA4): 10 to 100 nM
Dmax (SMARCA2 [1]): > 90%
DC50 (SMARCA2 [1]): < 10 nM
Dmax (SMARCA2 [2]): > 90%
DC50 (SMARCA2 [2]): 1 to 10 nM
Selectivity in MV411 (SMARCA2 [2]): C (C (10-100 fold))

Compound: C#Cc1ccc(CNC(=O)[C@@H]2C[C@@H](O)CN2C(=O)[C@@H](NC(=O)N2CC3(CC(N4CCC(c5cnc(N6CCc7[nH]c8nnc(-c9ccccc9O)cc8c7[C@H]6C)nc5)CC4)C3)C2)C(C)(C)C)c(F)c1 [I-120]
Dmax (SMARCA4): 50 to 70%
DC50 (SMARCA4): > 100 nM
Dmax (SMARCA2 [1]): > 90%
DC50 (SMARCA2 [1]): 10 to 50 nM
Dmax (SMARCA2 [2]): 70 to 90%
DC50 (SMARCA2 [2]): 10 to 100 nM
Selectivity in MV411 (SMARCA2 [2]): B (B (>100-500 fold))

Compound: CC#Cc1ccc(CNC(=O)[C@@H]2C[C@@H](O)CN2C(=O)[C@@H](NC(=O)N2CC3(CC(N4CCC(c5cnc(N6CCc7[nH]c8nnc(-c9ccccc9O)cc8c7[C@H]6C)nc5)CC4)C3)C2)C(C)(C)C)cc1 [I-121]
Dmax (SMARCA4): < 50%
DC50 (SMARCA4): > 100 nM
Dmax (SMARCA2 [1]): > 90%
DC50 (SMARCA2 [1]): 50 to 100 nM
Dmax (SMARCA2 [2]): 50 to 70%
DC50 (SMARCA2 [2]): 10 to 100 nM
Selectivity in MV411 (SMARCA2 [2]): B (B (>100-500 fold))

Compound: C#Cc1ccc(CNC(=O)[C@@H]2C[C@@H](O)CN2C(=O)[C@@H](NC(=O)N2CC3(CC(N4CCC(c5cnc(N6CCc7[nH]c8nnc(-c9ccccc9O)cc8c7[C@H]6C)nc5)CC4)C3)C2)C(C)(C)C)c(OCCCN(C)C)c1 [I-127]
Dmax (SMARCA4): 70 to 90%
DC50 (SMARCA4): > 100 nM
Dmax (SMARCA2 [1]): > 90%
DC50 (SMARCA2 [1]): > 100 nM
Dmax (SMARCA2 [2]): 70 to 90%
DC50 (SMARCA2 [2]): 10 to 100 nM
Selectivity in MV411 (SMARCA2 [2]): D (D (<10 fold))

Compound: C#Cc1ccc(CNC(=O)[C@@H]2C[C@@H](O)CN2C(=O)[C@@H](NC(=O)N2CC3(CC(N4CCC(c5cnc(N6CCc7[nH]c8nnc(-c9ccccc9O)cc8c7[C@H]6C)nc5)CC4)C3)C2)C(C)(C)C)c(OCCCOC)c1 [I-128]
Dmax (SMARCA4): > 90%
DC50 (SMARCA4): 10 to 100 nM
Dmax (SMARCA2 [1]): > 90%
DC50 (SMARCA2 [1]): < 10 nM
Dmax (SMARCA2 [2]): > 90%
DC50 (SMARCA2 [2]): 1 to 10 nM
Selectivity in MV411 (SMARCA2 [2]): D (D (<10 fold))

Compound: C#Cc1ccc(CNC(=O)[C@@H]2C[C@@H](O)CN2C(=O)[C@@H](NC(=O)N2CC3(CC(N4CCC(c5cnc(N6CCc7[nH]c8nnc(-c9ccccc9O)cc8c7[C@H]6CC)nc5)CC4)C3)C2)C(C)(C)C)cc1 [I-136]
Dmax (SMARCA4): 70 to 90%
DC50 (SMARCA4): > 100 nM
Dmax (SMARCA2 [1]): > 90%
DC50 (SMARCA2 [1]): 10 to 50 nM
Dmax (SMARCA2 [2]): 70 to 90%
DC50 (SMARCA2 [2]): 1 to 10 nM
Selectivity in MV411 (SMARCA2 [2]): C (C (10-100 fold))

Compound: C#Cc1ccc(CNC(=O)[C@@H]2C[C@@H](O)CN2C(=O)[C@@H](NC(=O)C2CC3(C2)CC(N2CCC(N4CCC(N5CCN6c7cc(-c8ccccc8O)nnc7NC[C@H]6C5)CC4)CC2)C3)C(C)(C)C)cc1 (some centres unmarked) [I-137]
Dmax (SMARCA4): < 50%
DC50 (SMARCA4): > 100 nM
Dmax (SMARCA2 [1]): > 90%
DC50 (SMARCA2 [1]): 50 to 100 nM
Dmax (SMARCA2 [2]): 70 to 90%
DC50 (SMARCA2 [2]): 1 to 10 nM
Selectivity in MV411 (SMARCA2 [2]): A (A (>500 fold))

Compound: C#Cc1ccc(CNC(=O)[C@@H]2C[C@@H](O)CN2C(=O)[C@@H](OC(=O)N2CC3(CC(N4CCC(c5cnc(N6CCc7[nH]c8nnc(-c9ccccc9O)cc8c7[C@H]6C)nc5)CC4)C3)C2)C(C)(C)C)cc1 [I-138]
Dmax (SMARCA4): > 90%
DC50 (SMARCA4): 10 to 100 nM
Dmax (SMARCA2 [1]): > 90%
DC50 (SMARCA2 [1]): < 10 nM
Dmax (SMARCA2 [2]): > 90%
DC50 (SMARCA2 [2]): 1 to 10 nM
Selectivity in MV411 (SMARCA2 [2]): C (C (10-100 fold))

Compound: C#Cc1ccc(CNC(=O)[C@@H]2C[C@@H](O)CN2C(=O)[C@@H](N(C)C(=O)N2CC3(CC(N4CCC(c5cnc(N6CCc7[nH]c8nnc(-c9ccccc9O)cc8c7[C@H]6C)nc5)CC4)C3)C2)C(C)(C)C)cc1 [I-139]
Dmax (SMARCA4): 50 to 70%
DC50 (SMARCA4): > 100 nM
Dmax (SMARCA2 [1]): < 50%
DC50 (SMARCA2 [1]): > 100 nM
Dmax (SMARCA2 [2]): < 50%
DC50 (SMARCA2 [2]): > 100 nM
Selectivity in MV411 (SMARCA2 [2]): C (C (10-100 fold))

Compound: C#Cc1ccc(CNC(=O)[C@@H]2C[C@@H](O)CN2C(=O)[C@@H](N(CCOC)C(=O)N2CC3(CC(N4CCC(c5cnc(N6CCc7[nH]c8nnc(-c9ccccc9O)cc8c7[C@H]6C)nc5)CC4)C3)C2)C(C)(C)C)cc1 [I-140]
Dmax (SMARCA4): < 50%
DC50 (SMARCA4): > 100 nM
Dmax (SMARCA2 [1]): < 50%
DC50 (SMARCA2 [1]): > 100 nM
Dmax (SMARCA2 [2]): < 50%
DC50 (SMARCA2 [2]): > 100 nM
Selectivity in MV411 (SMARCA2 [2]): C (C (10-100 fold))

Compound: C#Cc1ccc(CNC(=O)[C@@H]2C[C@@H](O)CN2C(=O)[C@@H](N(CCN(C)C)C(=O)N2CC3(CC(N4CCC(c5cnc(N6CCc7[nH]c8nnc(-c9ccccc9O)cc8c7[C@H]6C)nc5)CC4)C3)C2)C(C)(C)C)cc1 [I-141]
Dmax (SMARCA4): < 50%
DC50 (SMARCA4): > 100 nM
Dmax (SMARCA2 [1]): < 50%
DC50 (SMARCA2 [1]): > 100 nM
Dmax (SMARCA2 [2]): < 50%
DC50 (SMARCA2 [2]): > 100 nM
Selectivity in MV411 (SMARCA2 [2]): C (C (10-100 fold))

The next lines start with the values.

Dmax (SMARCA4): > 90%
DC50 (SMARCA4): 10 to 100 nM
Dmax (SMARCA2 [1]): > 90%
DC50 (SMARCA2 [1]): < 10 nM
Dmax (SMARCA2 [2]): > 90%
DC50 (SMARCA2 [2]): 1 to 10 nM
Selectivity in MV411 (SMARCA2 [2]): C (C (10-100 fold))
Compound: C#Cc1ccc(CNC(=O)[C@@H]2C[C@@H](O)CN2C(=O)[C@@H](NC(=O)N2CC3(CC(N4CCC(c5cnc(N6CCc7[nH]c8nnc(-c9ccccc9O)cc8c7[C@H]6C)nc5)CC4)C3)C2)C(C)(C)C)c(OCCO)c1 [I-143]

Dmax (SMARCA4): 70 to 90%
DC50 (SMARCA4): > 100 nM
Dmax (SMARCA2 [1]): > 90%
DC50 (SMARCA2 [1]): 10 to 50 nM
Dmax (SMARCA2 [2]): 70 to 90%
DC50 (SMARCA2 [2]): 1 to 10 nM
Selectivity in MV411 (SMARCA2 [2]): C (C (10-100 fold))
Compound: C#Cc1ccc(CNC(=O)[C@@H]2C[C@@H](O)CN2C(=O)[C@@H](NC(=O)N2CC3(CC(N4CCC(c5cnc(N6CCc7[nH]c8nnc(-c9ccccc9O)cc8c7[C@H]6C)nc5)CC4)C3)C2)C(C)(C)C)c(OCC(=O)O)c1 [I-144]

Dmax (SMARCA4): > 90%
DC50 (SMARCA4): 10 to 100 nM
Dmax (SMARCA2 [1]): > 90%
DC50 (SMARCA2 [1]): 10 to 50 nM
Dmax (SMARCA2 [2]): > 90%
DC50 (SMARCA2 [2]): < 1 nM
Selectivity in MV411 (SMARCA2 [2]): C (C (10-100 fold))
Compound: C#Cc1ccc(CNC(=O)[C@@H]2C[C@@H](O)CN2C(=O)[C@@H](NC(=O)N2CC3(CC(N4CCC(c5cnc(N6CCc7[nH]c8nnc(-c9ccccc9O)cc8c7[C@H]6C)nc5)CC4)C3)C2)C(C)(C)C)c(OCCCC(=O)O)c1 [I-145]

Dmax (SMARCA4): 70 to 90%
DC50 (SMARCA4): 10 to 100 nM
Dmax (SMARCA2 [1]): > 90%
DC50 (SMARCA2 [1]): < 10 nM
Dmax (SMARCA2 [2]): > 90%
DC50 (SMARCA2 [2]): 1 to 10 nM
Selectivity in MV411 (SMARCA2 [2]): C (C (10-100 fold))
Compound: C#Cc1ccc(CNC(=O)[C@@H]2C[C@@H](O)CN2C(=O)[C@@H](NC(=O)N2CC3(CC(N4CCC(c5cnc(N6CCc7[nH]c8nnc(-c9ccccc9O)cc8c7[C@H]6CO)nc5)CC4)C3)C2)C(C)(C)C)cc1 [I-146]

Dmax (SMARCA4): 70 to 90%
DC50 (SMARCA4): 10 to 100 nM
Dmax (SMARCA2 [1]): > 90%
DC50 (SMARCA2 [1]): 50 to 100 nM
Dmax (SMARCA2 [2]): > 90%
DC50 (SMARCA2 [2]): 1 to 10 nM
Selectivity in MV411 (SMARCA2 [2]): D (D (<10 fold))
Compound: C#Cc1ccc(CNC(=O)[C@@H]2C[C@@H](O)CN2C(=O)[C@@H](NC(=O)N2CC3(CC(N4CCC(c5cnc(N6CCc7[nH]c8nnc(-c9ccccc9O)cc8c7[C@@H]6CO)nc5)CC4)C3)C2)C(C)(C)C)cc1 [I-147]

Dmax (SMARCA4): < 50%
DC50 (SMARCA4): > 100 nM
Dmax (SMARCA2 [1]): > 90%
DC50 (SMARCA2 [1]): 50 to 100 nM
Dmax (SMARCA2 [2]): 70 to 90%
DC50 (SMARCA2 [2]): 10 to 100 nM
Selectivity in MV411 (SMARCA2 [2]): B (B (>100-500 fold))
Compound: Cc1ncsc1-c1ccc(CNC(=O)[C@@H]2C[C@@H](O)CN2C(=O)[C@@H](NC(=O)[C@H]2CCC3(CC2)C[C@H](N2CCC(c4ccc(N5CCN6c7cc(-c8ccccc8O)nnc7NC[C@H]6C5)nc4)CC2)C3)C(C)(C)C)cc1 (some centres unmarked) [I-148]
